# Experimental data reported in PubChem BioAssay AID256 (DTP/NCI, 2004).
# Where “and” joins values, the source holds several entries; their conditions need not be identical. Identical values can stand only once. Toxic doses and inconclusive results are not listed.
# Tested on: CD2F1 mice, L1210 leukemia ip, survival T/C
# Assay: NCI In Vivo Anticancer Drug Screen. Data for tumor model L1210 Leukemia (intraperitoneal) in CD2F1 (CDF1) mice
# Conditions: higher = longer survival
# Method in brief: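 Transplantable tumor in mice; compound-treated vs vehicle-treated groups. Read-out = treated/control ratio of the measured endpoint.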
# [1] = endpoint: mean survival time, dose: 50.0 mg/kg/injection, schedule: Q01DX009 (ip), vehicle: saline with Tween-80
# [2] = endpoint: mean survival time, dose: 100.0 mg/kg/injection, schedule: Q01DX009 (ip), vehicle: saline with Tween-80
# [3] = endpoint: mean survival time, dose: 100.0 mg/kg/injection, schedule: Q04DX003 (ip), vehicle: saline with Tween-80
# [4] = endpoint: mean survival time, dose: 200.0 mg/kg/injection, schedule: Q04DX003 (ip), vehicle: saline with Tween-80
# [5] = endpoint: mean survival time, dose: 25.0 mg/kg/injection, schedule: Q04DX002 (ip), vehicle: saline with Tween-80
# [6] = endpoint: mean survival time, dose: 50.0 mg/kg/injection, schedule: Q04DX002 (ip), vehicle: saline with Tween-80
# [7] = endpoint: mean survival time, dose: 200.0 mg/kg/injection, schedule: Q01DX009 (ip), vehicle: saline with Tween-80
# [8] = endpoint: mean survival time, dose: 100.0 mg/kg/injection, schedule: Q04DX002 (ip), vehicle: saline with Tween-80
# [9] = endpoint: mean survival time, dose: 200.0 mg/kg/injection, schedule: Q04DX002 (ip), vehicle: saline with Tween-80
# [10] = endpoint: mean survival time, dose: 400.0 mg/kg/injection, schedule: Q04DX002 (ip), vehicle: saline with Tween-80
# [11] = endpoint: mean survival time, dose: 400.0 mg/kg/injection, schedule: Q04DX003 (ip), vehicle: saline with Tween-80
# [12] = endpoint: mean survival time, dose: 25.0 mg/kg/injection, schedule: Q04DX003 (ip), vehicle: other
# [13] = endpoint: mean survival time, dose: 50.0 mg/kg/injection, schedule: Q04DX003 (ip), vehicle: other
# [14] = endpoint: mean survival time, dose: 400.0 mg/kg/injection, schedule: Q01DX009 (ip), vehicle: saline with Tween-80
structure (smiles),measurement,setting,value
COc1nc(NC2OC(CO)C(O)C(O)C2O)c(I)c(=O)[nH]1 (stereo unspecified),T/C,"endpoint: median survival time, dose: 12.5 mg/kg/injection, schedule: Q01DX005 (ip), vehicle: saline",109 % of control
same,T/C,"endpoint: median survival time, dose: 25.0 mg/kg/injection, schedule: Q01DX005 (ip), vehicle: saline",107 % of control
same,T/C,"endpoint: median survival time, dose: 50.0 mg/kg/injection, schedule: Q01DX005 (ip), vehicle: saline",100 % of control
same,T/C,"endpoint: median survival time, dose: 100.0 mg/kg/injection, schedule: Q01DX005 (ip), vehicle: saline",101 % of control
same,T/C,"endpoint: median survival time, dose: 200.0 mg/kg/injection, schedule: Q01DX005 (ip), vehicle: saline",100 % of control
O=[N+]([O-])c1ccc(O)c(Cl)c1,T/C,"endpoint: mean survival time, dose: 12.5 mg/kg/injection, schedule: Q01DX009 (ip), vehicle: saline with Tween-80",86 % of control
same,T/C,"endpoint: mean survival time, dose: 25.0 mg/kg/injection, schedule: Q01DX009 (ip), vehicle: saline with Tween-80",89 % of control
same,T/C,[1],106 % of control and 108 % of control
O=C(O)CCC(=O)c1ccc(Cl)c(Cl)c1,T/C,[1],102 % of control
same,T/C,[2],96 % of control
same,T/C,[3],98 % of control
same,T/C,[4],91 % of control
Cc1ccccc1CC#N,T/C,"endpoint: mean survival time, dose: 12.5 mg/kg/injection, schedule: Q04DX002 (ip), vehicle: saline",96 % of control
same,T/C,"endpoint: mean survival time, dose: 25.0 mg/kg/injection, schedule: Q04DX002 (ip), vehicle: saline",99 % of control
Cc1cc(C(O)CNCCCn2c(N3CCOCC3)nc3c2c(=O)n(C)c(=O)n3C)ccc1O (stereo unspecified),T/C,"endpoint: mean survival time, dose: 12.5 mg/kg/injection, schedule: Q01DX005 (ip), vehicle: water",96 % of control
same,T/C,"endpoint: mean survival time, dose: 25.0 mg/kg/injection, schedule: Q01DX005 (ip), vehicle: water",97 % of control
same,T/C,"endpoint: mean survival time, dose: 50.0 mg/kg/injection, schedule: Q01DX005 (ip), vehicle: water",97 % of control
same,T/C,"endpoint: mean survival time, dose: 100.0 mg/kg/injection, schedule: Q01DX005 (ip), vehicle: water",96 % of control
same,T/C,"endpoint: mean survival time, dose: 200.0 mg/kg/injection, schedule: Q01DX005 (ip), vehicle: water",100 % of control
COc1cccc(C2NC(=O)c3c(n[nH]c3N)S2)c1O (stereo unspecified),T/C,"endpoint: median survival time, dose: 12.5 mg/kg/injection, schedule: Q01DX009 (ip), vehicle: saline with Tween-80",101 % of control
same,T/C,"endpoint: median survival time, dose: 25.0 mg/kg/injection, schedule: Q01DX009 (ip), vehicle: saline with Tween-80",101 % of control
same,T/C,"endpoint: median survival time, dose: 50.0 mg/kg/injection, schedule: Q01DX009 (ip), vehicle: saline with Tween-80",102 % of control
same,T/C,"endpoint: median survival time, dose: 100.0 mg/kg/injection, schedule: Q01DX009 (ip), vehicle: saline with Tween-80",98 % of control
same,T/C,"endpoint: median survival time, dose: 200.0 mg/kg/injection, schedule: Q01DX009 (ip), vehicle: saline with Tween-80",97 % of control
same,T/C,"endpoint: median survival time, dose: 400.0 mg/kg/injection, schedule: Q01DX009 (ip), vehicle: saline with Tween-80",93 % of control
[Br][Ni][Br].[NH-]CC[NH-].[NH-]CC[NH-],T/C,[5],104 % of control
same,T/C,[6],110 % of control
O=C1C=C(Nc2cccc(C(=O)O)c2)c2ccccc2C1=O,T/C,"endpoint: mean survival time, dose: 75.0 mg/kg/injection, schedule: Q01DX001 (ip), vehicle: saline",101 % of control
same,T/C,"endpoint: mean survival time, dose: 300.0 mg/kg/injection, schedule: Q01DX001 (ip), vehicle: saline",101 % of control
N=C(N)c1ccc(Nc2ccc(-c3cc4ccc(C(=N)N)cc4[nH]3)cc2)cc1,T/C,"endpoint: median survival time, dose: 3.75 mg/kg/injection, schedule: Q01DX005 (ip), vehicle: saline",326 % of control
same,T/C,"endpoint: median survival time, dose: 4.5 mg/kg/injection, schedule: Q01DX005 (ip), vehicle: saline",168 % of control
same,T/C,"endpoint: median survival time, dose: 7.5 mg/kg/injection, schedule: Q01DX005 (ip), vehicle: saline",182 % of control and 271 % of control
same,T/C,"endpoint: median survival time, dose: 12.49 mg/kg/injection, schedule: Q01DX005 (ip), vehicle: saline",150 % of control
same,T/C,"endpoint: median survival time, dose: 20.83 mg/kg/injection, schedule: Q01DX005 (ip), vehicle: saline",101 % of control
CCOC/C=C\C1CCCC1,T/C,[1],94 % of control
same,T/C,[2],100 % of control
same,T/C,[7],102 % of control
Cc1cc(S(=O)(=O)c2ccc(O)c(C)c2)ccc1O,T/C,[8],103 % of control
same,T/C,[9],100 % of control
same,T/C,[10],97 % of control
CN(C)C=Nc1ccc(C#N)cc1,T/C,"endpoint: mean survival time, dose: 50.0 mg/kg/injection, schedule: Q01DX001 (ip), vehicle: saline",97 % of control
same,T/C,"endpoint: mean survival time, dose: 100.0 mg/kg/injection, schedule: Q01DX001 (ip), vehicle: saline",97 % of control
CN(C)C(=O)SC1=C(c2c(Cl)cccc2Cl)C(=O)c2ccccc21,T/C,"endpoint: median survival time, dose: 25.0 mg/kg/injection, schedule: Q01DX009 (ip), vehicle: Klucel (hydroxypropylcellulose) (HPC)",112 % of control
same,T/C,"endpoint: median survival time, dose: 50.0 mg/kg/injection, schedule: Q01DX009 (ip), vehicle: Klucel (hydroxypropylcellulose) (HPC)",112 % of control
same,T/C,"endpoint: median survival time, dose: 100.0 mg/kg/injection, schedule: Q01DX009 (ip), vehicle: Klucel (hydroxypropylcellulose) (HPC)",104 % of control
same,T/C,"endpoint: median survival time, dose: 200.0 mg/kg/injection, schedule: Q01DX009 (ip), vehicle: Klucel (hydroxypropylcellulose) (HPC)",101 % of control
same,T/C,"endpoint: median survival time, dose: 400.0 mg/kg/injection, schedule: Q01DX009 (ip), vehicle: Klucel (hydroxypropylcellulose) (HPC)",108 % of control
CNC(=O)Oc1cccc(NC(=O)OC(C)C(C)C)c1 (stereo unspecified),T/C,[3],98 % of control
same,T/C,[4],90 % of control
same,T/C,[11],96 % of control
O=C(NCCNC(=O)c1ccccc1)c1ccccc1,T/C,"endpoint: mean survival time, dose: 6.25 mg/kg/injection, schedule: Q04DX002 (ip), vehicle: saline with Tween-80",97 % of control
same,T/C,"endpoint: mean survival time, dose: 12.5 mg/kg/injection, schedule: Q04DX002 (ip), vehicle: saline with Tween-80",93 % of control
same,T/C,[5],93 % of control
same,T/C,[6],89 % of control
same,T/C,"endpoint: median survival time, dose: 50.0 mg/kg/injection, schedule: Q04DX002 (ip), vehicle: saline with Tween-80",94 % of control
NC(C(=O)O)C(O)c1ccc2c(c1)OCO2 (stereo unspecified),T/C,[3],98 % of control
same,T/C,[4],92 % of control
same,T/C,[11],95 % of control
CCCCCCCCCCCCCCCCCCCC,T/C,[12],90 % of control
same,T/C,[13],91 % of control
same,T/C,"endpoint: mean survival time, dose: 100.0 mg/kg/injection, schedule: Q04DX003 (ip), vehicle: other",88 % of control
CN(C)C/C(=C\c1ccccc1)C(=O)c1ccccc1,T/C,"endpoint: mean survival time, dose: 12.5 mg/kg/injection, schedule: Q04DX003 (ip), vehicle: other",98 % of control
same,T/C,[12],97 % of control
same,T/C,[13],101 % of control
CN(C(=O)N(CCCl)N=O)C1CCCCC1,T/C,"endpoint: mean survival time, dose: 16.0 mg/kg/injection, schedule: Q01DX001 (ip), vehicle: saline with Tween-80",96 % of control
same,T/C,"endpoint: mean survival time, dose: 24.0 mg/kg/injection, schedule: Q01DX001 (ip), vehicle: saline with Tween-80",98 % of control
same,T/C,"endpoint: mean survival time, dose: 36.0 mg/kg/injection, schedule: Q01DX001 (ip), vehicle: saline with Tween-80",108 % of control
same,T/C,"endpoint: mean survival time, dose: 54.0 mg/kg/injection, schedule: Q01DX001 (ip), vehicle: saline with Tween-80",110 % of control
same,T/C,"endpoint: mean survival time, dose: 80.0 mg/kg/injection, schedule: Q01DX001 (ip), vehicle: saline with Tween-80",123 % of control
same,T/C,"endpoint: mean survival time, dose: 180.0 mg/kg/injection, schedule: Q01DX001 (ip), vehicle: saline with Tween-80",236 % of control
same,T/C,"endpoint: mean survival time, dose: 268.0 mg/kg/injection, schedule: Q01DX001 (ip), vehicle: saline with Tween-80",396 % of control
same,T/C,"endpoint: mean survival time, dose: 400.0 mg/kg/injection, schedule: Q01DX001 (ip), vehicle: saline with Tween-80",353 % of control
O=C1CCC(=O)N1C1c2ccccc2Oc2ccccc21,T/C,"endpoint: mean survival time, dose: 100.0 mg/kg/injection, schedule: Q01DX009 (ip), vehicle: saline",96 % of control
same,T/C,"endpoint: mean survival time, dose: 200.0 mg/kg/injection, schedule: Q01DX009 (ip), vehicle: saline",91 % of control
same,T/C,"endpoint: mean survival time, dose: 400.0 mg/kg/injection, schedule: Q01DX009 (ip), vehicle: saline",92 % of control
Brc1ccc(Sc2ccccc2)cc1,T/C,[2],98 % of control
same,T/C,[7],93 % of control
same,T/C,[14],96 % of control
Cc1ccc(Cl)cc1NC(=O)c1ccc([N+](=O)[O-])cc1,T/C,[3],90 % of control
C[Si](C)(C)Oc1ccc(OCc2ccccc2)cc1,T/C,[6],87 % of control
same,T/C,[8],87 % of control
same,T/C,[9],95 % of control
same,T/C,[10],95 % of control
O=S(=O)(Oc1ccc(OS(=O)(=O)c2ccccc2)cc1)c1ccccc1,T/C,[2],96 % of control
same,T/C,[7],98 % of control
same,T/C,[14],107 % of control
